US12595269B2, “Morpholine-like monoamine releasers” (Solvonis Therapeutics Ireland Holdings Limited, priority 2022, dated 2026)

Legend:
[1] = Plasma protein binding by equilibrium dialysis, human plasma; type: in vitro ADME; conditions: pH 7.4
Description: Methods and Procedure: This study was performed in agreement with the previously described procedures to assure data integrity and adherence to GLP standards. Plasma protein binding and blood tissue binding of test items (0.5 μM) was determined using biological samples from male Sprague Dawley (SD) rats and humans. […] Dexamethasone was used as a control for lung tissue binding. Various biological samples were spiked with test compounds according to the methods that follow.
Preparation of plasma or blood samples: An appropriate amount of test compound was dissolved in DMSO to yield a 10 mM solution. Further dilutions, to obtain 50 μM working solutions (WS), were then prepared using 50% acetonitrile in Milli-Q water. These 100×WS were used to spike plasma or blood to obtain a final concentration of 0.5 μM. From this initial spiking solution, control samples (n=3), referred to as T=0, were immediately extracted and used to calculate the recovery of the test item.
An equilibrium dialysis method was performed to determine protein binding in the various biological samples described herein. Materials were prepared and methods were in accordance with the following procedures. […]
Dialysis buffer was prepared by dissolving Na2HPO4 8.69 g, KH2PO4 1.90 g, and NaCl 4.11 g in 1 L of MilliQ water, and adjusting the pH to 7.4 with H3PO4. […] In order to control the integrity of the membrane after the dialysis process, the presence of protein was assessed in the buffer compartment. […]
Samples were analyzed in a LC-MS/MS system using an analytical method to monitor the compound to internal standard peak area ratios as representative of the compound concentrations. Alternatively, samples were analyzed by RapidFire.
Protein binding in plasma, blood, brain, and lung tissue samples were determined with the following formula: Afu=Buffer/x, wherein “x” may be plasma, blood, brain, or lung, and “Afu” is the apparent fraction unbound, and the other variables refer to the analyte/internal standard ratio determined in their specific compartment (buffer, plasma, blood, brain homogenate, and lung homogenate); […]

[2] = In vitro intrinsic clearance in human liver microsomes; type: in vitro ADME; conditions: pH 7.4, read-out: Intrinsic clearance (μL/min/mg protein) human
Description: Methods and Procedure: The general procedure involves incubating test compounds with liver microsomes and subsequently detecting the compounds to determine intrinsic clearance. Clearance was estimated from the rate of depletion k (min−1), the volume of the incubation V (mL), and the amount of microsomal proteins in the incubation M (mg). Intrinsic clearance is defined by the following equation: Clint k*V/M.
Values for CLint are expressed as μL/min/mg protein. Verapamil and dextromethorphan were used as positive controls for CYP3A4 and CYP2D6 isoforms, respectively, to confirm metabolic activity.
Positive control and compounds for testing were dissolved in an appropriate solvent to obtain a 10 mM stock solution, which was diluted to achieve a final working solution, as detailed in the above table. Stock solutions were usually prepared at 10 mM DMSO, whereas working solutions were made by adding 5 μL 10 mM DMSO+995 μL MeOH. However, this concentration can be varied, e.g., when the test item is not soluble in the selected solvent.
Prior to experimentation, frozen liver microsomes were thawed in a water bath at 37° C. and kept on ice until use. The microsomes were then diluted with 50 mM potassium phosphate buffer pH 7.4 to a protein concentration of 0.56 mg/mL. To prepare test and control items in final incubation conditions, 5 μL of test compound and positive control working solutions were added to 445 μL of microsomes incubation mixture at 0.56 mg/mL and 50 μL of regenerating system.
As it relates to the automated incubation procedure for microsomes incubation, the following procedure was followed: • 1. 150 μL of quenching solution (ACN containing an appropriate Internal Standard, i.e. Rolipram and Diclofenac for positive and negative ion mode, respectively) was manually dispensed or dispensed by using the Hamilton system in each well of 96 deep well 1 mL plates. • 2. 800-1000 μL-aliquots of NADPH regenerating system were pre-warmed at 37° C. for 5 minutes. • 3. 5 μL of 50 μM test items and control were added to 445 μL of the 0.56 mg/mL microsomes solution, and the incubation mixture was pre-warmed in a 96 deep well 2 mL plate (incubation plate) at 37° C. for 5 minutes. • 4. […] Metabolic stability was calculated from the ratio of peak area of the remaining test or control item with internal standard versus time. • 9. […] The integrated peak areas of the test and control items at the selected time points were divided by the respective peak areas of the IS, and the percent of parent remaining was calculated by normalizing the peak area ratio of parent to IS at 0 min. Observed rate constant (kobs) for parent degradation was calculated by determining the slope of the line of the graph of the natural log of percentage parent remaining versus time of incubation. […]

SMILES	fraction unbound at 5 h, 0.5 µM [1]	microsomal CLint at 0.5 µM [2]
Clc1ccc(C23CNC(CO2)C3)cc1Cl (stereo not shown) [522A, 1-(3,4-dichlorophenyl)-2-oxa-5-azabicyclo[2.2.1]heptane]	0.021	10 µL/min/mg
CNC(C)Cc1ccc2c(c1)OCO2 (stereo not shown) [MDMA, reference compound]	> 0.5	30 µL/min/mg
Clc1ccc([C@]23CN[C@H](CO2)C3)cc1Cl (single isomer, unassigned) [516A]	–	31 µL/min/mg
Clc1ccc([C@@]23CN[C@@H](CO2)C3)cc1Cl (single isomer, unassigned) [518A]	0.0143	40 µL/min/mg
